Source: the supplement of paper PMC11821682

Legend:
Danio rerio embryo [1] = assay: LEL embryonic photomotor response 24 hpf
Danio rerio embryo [2] = assay: BMC10 mortality 24-120 hpf; higher = less toxic
Method: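 ZBEscreen: dechorionated Tropical 5D zebrafish embryos were exposed from 4 hpf in 96-well plates (1% DMSO, 28 °C). All compounds were first tested at 100 µM; hits were retested at 0.005-100 µM. Morphology and mortality were scored at 120 hpf and fitted as BMC10 (3-parameter log-logistic, extra risk). The embryonic photomotor response at 24 hpf and the larval photomotor response at 120 hpf are given as lowest effect levels (K-S test, p<0.01). NA = not significant up to 100 µM; NT = not tested.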

Danio rerio embryo [3] = assay: LEL larval photomotor response dark phase 120 hpf
Danio rerio embryo [4] = assay: BMC10 any morphological effect or mortality at 120 hpf; higher = less toxic
HL-60 = assay: Cell Health Index (toxicity pseudo-probability over dose series) (index 0-1); higher = more cytotoxic / cell stress;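 note: HL-60 cells exposed 4 h at 37 °C to ten threefold dilutions spanning 5 nM to 100 µM, multiparametric flow cytometry features scored by machine-learning classification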

SMILES | LEL embryonic photomotor response 24 hpf (Danio rerio embryo [1]) | BMC10 mortality 24-120 hpf (Danio rerio embryo [2]) | LEL larval photomotor response dark phase 120 hpf (Danio rerio embryo [3]) | BMC10 any morphological effect or mortality (Danio rerio embryo [4]) | Cell Health Index (HL-60)
Fc1ccc(CNc2ncnc3ccc(F)cc23)cc1 [Spautin-1] | 3.7 µM | 1.17 µM | 1.23 µM | 0.511 µM | 0.772
CC(=O)O[C@H]1[C@H]2O[C@]23[C@@H]2CC[C@@H]4C[C@@H](O)CC[C@]4(C)[C@H]2CC[C@]3(C)[C@H]1c1ccc(=O)oc1 [Cinobufagin] | 1.23 µM | 29.9 µM | 33.3 µM | 27.2 µM | 0.556
O=C(Nc1cccc(NC(=O)c2cccc(O)c2O)c1)c1cccc(O)c1O [MST-312] | 100 µM | 74.3 µM | > 100 µM | 65.3 µM | 0.688
CC[C@@]1([C@@H]2O[C@@H]([C@H]3O[C@@](O)(CO)[C@H](C)C[C@@H]3C)C[C@@H]2C)CC[C@H]([C@]2(C)CC[C@]3(C[C@H](O)[C@@H](C)[C@@H]([C@@H](C)[C@@H](OC)[C@H](C)C(=O)[O-])O3)O2)O1.[Na+] [Monensin] | > 100 µM | 28.5 µM | 0.005 µM | 27.5 µM | 0.493
Cc1cc(Nc2nc(N[C@@H](C)c3ccc(F)cc3)c(C#N)cc2F)n[nH]1 [AZ-960] | 3.7 µM | 1.95 µM | > 100 µM | 1.27 µM | 0.78
N[C@H]1C[C@@H]1c1ccc(-c2cccc(O)c2)cc1 [OG-L002] | 0.015 µM | 15.4 µM | > 100 µM | 3.27 µM | 0.334
CC(C)C[C@H](NC(=O)[C@H](Cc1ccccc1)NC(=O)c1cnccn1)B(O)O [Bortezomib] | > 100 µM | 17.4 µM | 0.14 µM | 13.2 µM | 0.24
OC1=C2C(C(C=C([C@@](O)([H])C/C=C(C)\C)C2=O)=O)=C(O)C=C1 [Shikonin] | 3.7 µM | 1.73 µM | > 100 µM | 1.08 µM | 0.884
C[C@H]1[C@H](C)CC[C@]2(C(=O)O)CC[C@]3(C)C(=CC[C@@H]4[C@@]5(C)CC[C@H](O)C(C)(C)[C@@H]5CC[C@]43C)[C@H]12 [Ursolic acid] | > 100 µM | 3.95 µM | > 100 µM | 0.748 µM | 0.434
N#CC(=C(/N)Sc1ccccc1N)/C(C#N)=C(\N)Sc1ccccc1N [U0126] | 33.3 µM | 11.5 µM | > 100 µM | 4.02 µM | 0.558
O=c1c(O)c(-c2ccc(O)cc2)oc2cc(O)cc(O)c12 [Kaempferol] | > 100 µM | 38.4 µM | > 100 µM | 10 µM | 0.463
COc1ccc2c(O[C@@H]3C[C@H]4C(=O)N[C@]5(C(=O)NS(=O)(=O)C6CC6)C[C@H]5/C=C\CCCCN(C)C(=O)[C@@H]4C3)cc(-c3nc(C(C)C)cs3)nc2c1C.[Na] [Simeprevir] | > 100 µM | 5.01 µM | > 100 µM | 3.6 µM | 0.903
CCN(CC)CCOc1ccc2c(c1)C(=O)c1cc(OCCN(CC)CC)ccc1-2.Cl.Cl [Tilorone] | > 100 µM | 9.79 µM | > 100 µM | 3.55 µM | 0.506
CC(C)(C)C(O)C(Oc1ccc(-c2ccccc2)cc1)n1cncn1 (stereo not given) [Bitertanol] | 33.3 µM | 30.3 µM | 11.1 µM | 16.4 µM | 0.408
NC(=O)c1ccc(I)c([N+](=O)[O-])c1 [Iniparib] | 33.3 µM | 33.9 µM | > 100 µM | 10.2 µM | 0.283
CC(C)(C)Oc1cccc2nc(N)nc(N)c12 [HZ-1157] | 33.3 µM | 16.1 µM | > 100 µM | > 100 µM | 0.463
CC[C@H]1CN2CCc3cc(OC)c(OC)cc3[C@@H]2C[C@@H]1C[C@H]1NCCc2cc(O)c(OC)cc21 [Cephaeline] | 3.7 µM | 0.159 µM | 0.41 µM | 0.069 µM | 0.562
CC1(C)CC[C@]2(C(=O)O)CC[C@]3(C)C(=CC[C@@H]4[C@@]5(C)CC[C@H](O)C(C)(C)[C@@H]5CC[C@]43C)[C@@H]2C1 [Oleanolic acid] | > 100 µM | 8.42 µM | > 100 µM | 3.43 µM | 0.354

SMILES | LEL embryonic photomotor response 24 hpf (Danio rerio embryo [1]) | BMC10 mortality 24-120 hpf (Danio rerio embryo [2]) | LEL larval photomotor response dark phase 120 hpf (Danio rerio embryo [3]) | BMC10 any morphological effect or mortality (Danio rerio embryo [4]) | Cell Health Index (HL-60)
COc1ccc2nc3cc(Cl)ccc3c(Nc3cc(CN4CCCC4)c(O)c(CN4CCCC4)c3)c2n1.O=P(O)(O)O.O=P(O)(O)O.O=P(O)(O)O.O=P(O)(O)O [Pyronaridine] | 3.7 µM | 3.65 µM | > 100 µM | 1.18 µM | 0.929
c1ccc(CNc2nc(NCc3ccccc3)c3ccccc3n2)cc1 [DBeQ] | 1.23 µM | 1.31 µM | > 100 µM | 1.15 µM | 0.929
O=C(N/N=C/c1ccc(O)c(O)c1)c1cc2ccccc2cc1O [Dynasore] | 33.3 µM | 7.92 µM | > 100 µM | 10.2 µM | 0.48
O=c1c(O)c(-c2ccccc2)oc2cc(O)cc(O)c12 [Galangin] | 100 µM | 32.8 µM | > 100 µM | 12.3 µM | 0.411
COc1ccc(-c2oc3cc(OC)c(OC)c(O)c3c(=O)c2OC)cc1O [Casticin] | 3.7 µM | 1.28 µM | > 100 µM | 1.26 µM | 0.355
CCC[C@H](NC(=O)/C(C#N)=C/c1cccc(Br)n1)c1ccccc1 [Degrasyn] | 1.23 µM | 1.92 µM | > 100 µM | 0.411 µM | 0.909
Cl.O[C@@H](c1cc(C(F)(F)F)nc2c(C(F)(F)F)cccc12)[C@H]1CCCCN1 [Mefloquine] | 0.015 µM | 10.7 µM | > 100 µM | 8.89 µM | 0.931
CC1(C)CC[C@]2(C(=O)O)CC[C@]3(C)C(=CC[C@@H]4[C@@]5(C)C[C@@H](O)[C@H](O)C(C)(C)C5CC[C@]43C)[C@H]2C1 (stereo not given in full) [Maslinic acid] | > 100 µM | 13.3 µM | > 100 µM | 13.3 µM | 0.494
CC(C)c1cccc(=O)c(O)c1 [Hinokitiol] | 33.3 µM | 10.1 µM | > 100 µM | 3.83 µM | 0.335
O=C1C=CC2=CC=C(OC)C(C/C=C(C)\C)=C2O1 [Osthole] | 3.7 µM | 8.94 µM | > 100 µM | 3.1 µM | 0.355
CC(=O)c1cc([N+](=O)[O-])c(Sc2cccc(Cl)c2Cl)s1 | > 100 µM | 27.7 µM | > 100 µM | 0.246 µM | 0.789
Oc1c(Cl)cc(Cl)cc1Sc1cc(Cl)cc(Cl)c1O [Bithionol] | 3.7 µM | 0.795 µM | > 100 µM | 0.577 µM | 0.826
C[C@]12CC[C@H](O)C[C@H]1CC[C@@H]1[C@@H]2CC[C@]2(C)[C@@H](c3ccc(=O)oc3)C[C@H]3O[C@]132 [Bufogenin] | 11.1 µM | 1.41 µM | > 100 µM | 2.23 µM | 0.504
Cc1c(-c2ccc(-c3ccccc3F)cc2)nc2ccc(F)cc2c1C(=O)O [Brequinar] | 11.1 µM | 1.41 µM | > 100 µM | 0.331 µM | 0.332
CC(C)(C)c1cc(C(=O)/C(C#N)=N/Nc2cccc(Cl)c2)no1 [ESI-09] | 11.1 µM | 0.13 µM | > 100 µM | 0.422 µM | 0.698
C=CC(=O)N1CC/C(=C\c2ccc(F)c([N+](=O)[O-])c2)C(=O)/C(=C/c2ccc(F)c([N+](=O)[O-])c2)C1 [VLX1570] | > 100 µM | 1.38 µM | > 100 µM | 1.26 µM | 0.884
C=CC(C)(C)c1cc(/C=C/C(=O)c2ccc(O)cc2)c(OC)cc1O [Licochalcone A] | 3.7 µM | 1.16 µM | > 100 µM | 0.64 µM | 0.828
